The source of these data is ChEMBL document CHEMBL1201862, “PubChem BioAssay data set” (2004).

Some test systems named below: SF-268; UACC-62; A549; KM-20L2; HL-60; SNB-75; SK-MEL-28; HOP-62; HOP-18; LXFL 529; A498; HCC 2998; OVCAR-3; KM12; OVCAR-5.
What all share (experiment): DTP human tumour cell line panel, 48 h

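Assay format: 96-well plates, 48-hour exposure. At the GI50, growth is halved.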 Active and inactive are the calls of the source. No stated cut-off is given here; in the data, active = GI50 up to about 1.1 µM and inactive = higher.

Take `Cc1occ2c1C(=O)CC1C2[C@@H](O)CC2C(C)(C)CCC[C@]12C` (some centres not stated): the GI50 (in general, the concentration at which growth is held to half of that of the control) in the assay on SF-268 is > 100 µM (inactive); with UACC-62, 95.7 µM (inactive); in the assay with A549, > 100 µM (inactive); in the assay with KM-20L2, > 100 µM (inactive); with HL-60, 44.7 µM (inactive); with SNB-75 it was > 100 µM (inactive). The GI50 in the assay on SK-MEL-28, in the assay with HOP-62, in the assay with HOP-18, in the assay with LXFL 529, in the assay with A498 and in the assay on HCC 2998 was > 100 µM (inactive) throughout.

For the molecule `COC(=O)C(=O)C(CC(=O)Nc1c(C)cccc1C)C(=O)OC` (configuration not stated), the GI50 in the assay on SF-268, in the assay on UACC-62, in the assay with A549, in the assay on KM-20L2, in the assay with OVCAR-3 and in the assay on HL-60 was > 100 µM (inactive) in each case. The GI50 in the assay on KM12, in the assay with OVCAR-5, with SK-MEL-28, in the assay on HOP-62, in the assay on HOP-18 and in the assay with LXFL 529 was > 100 µM (inactive) throughout. In addition, the GI50 with HCC 2998 was > 100 µM (inactive).

With `Cc1c(Cl)cccc1NC(=O)/C(Cl)=C(\Cl)C(=O)O`, the GI50 was 22.6 µM (inactive) with SF-268; 13.2 µM (inactive) with UACC-62; 19.5 µM (inactive) in the assay with A549; 21.6 µM (inactive) in the assay on KM-20L2; 19 µM (inactive) in the assay with OVCAR-3; 17.3 µM (inactive) in the assay on KM12. In addition, the GI50 in the assay with OVCAR-5 is 16.9 µM (inactive); in the assay on SNB-75, 18.7 µM (inactive); in the assay with SK-MEL-28, 20.5 µM (inactive); with HOP-62, 31.8 µM (inactive); with HOP-18, 17.5 µM (inactive); with LXFL 529 it was 19.8 µM (inactive). Moreover, the GI50 with A498 was 45.1 µM (inactive); in the assay on HCC 2998, 20.3 µM (inactive).

`COC(=O)C(Cc1ccccc1)NC(=O)Cn1ccnc1[N+](=O)[O-]` (configuration not stated): the GI50 with SF-268 was > 100 µM (inactive); in the assay with UACC-62 it was > 100 µM (inactive); in the assay with A549 it was > 100 µM (inactive); in the assay on KM-20L2 it was > 100 µM (inactive); in the assay with OVCAR-3, > 10 µM (inactive); in the assay with HL-60 it was > 100 µM (inactive). The GI50 with KM12 is > 100 µM (inactive); in the assay with OVCAR-5 it was > 100 µM (inactive); in the assay with SNB-75, 94.8 µM (inactive); in the assay on SK-MEL-28, > 100 µM (inactive); in the assay on HOP-62, > 100 µM (inactive); in the assay with HOP-18, 67.8 µM (inactive). Besides, the GI50 with LXFL 529 and in the assay on A498 was > 100 µM (inactive) throughout.

Consider `CCNC(=O)O/N=C1\CCC2[C@@H]3CC=C4C[C@@H](OC5CCCCO5)CC[C@]4(C)C3CC[C@]12C` (some centres not stated), for which the GI50 in the assay on UACC-62 was 0.733 µM (active); in the assay with A549 it was 2.74 µM (inactive); in the assay with KM-20L2, 2.64 µM (inactive); in the assay on OVCAR-3, 2.59 µM (inactive); with KM12, 3.94 µM (inactive); with OVCAR-5 it was 2.48 µM (inactive). Besides, the GI50 is 1.91 µM (inactive) with SNB-75; 3.19 µM (inactive) in the assay with SK-MEL-28; 22.3 µM (inactive) in the assay on HOP-62; 1.42 µM (inactive) in the assay on HOP-18; 1.2 µM (inactive) in the assay with LXFL 529; 34 µM (inactive) in the assay with A498. Moreover, the GI50 with HCC 2998 was 2.89 µM (inactive).

With `COc1cc2cccc(/N=C\c3ccccc3Cl)c2cc1OC`, the GI50 is > 100 µM (inactive) with SF-268; 66.5 µM (inactive) in the assay on UACC-62; > 100 µM (inactive) in the assay on A549; > 100 µM (inactive) in the assay with KM-20L2; > 100 µM (inactive) with OVCAR-3; 4.48 µM (inactive) in the assay on HL-60. The GI50 with KM12, in the assay on OVCAR-5, with SNB-75, in the assay with SK-MEL-28, in the assay with HOP-62 and with HOP-18 was > 100 µM (inactive) throughout. In addition, the GI50 in the assay with LXFL 529 and in the assay with HCC 2998 was > 100 µM (inactive) each time.

For the molecule `COc1ccc(C(c2ccccc2C(=O)O)c2ccc(OC)c3ccccc23)c2ccccc12`, the GI50 in the assay on SF-268 was > 10 µM (inactive); in the assay with UACC-62, 4.71 µM (inactive); in the assay on A549 it was 7.48 µM (inactive); with KM-20L2 it was 9.25 µM (inactive); with OVCAR-3, 13.5 µM (inactive); with HL-60, 7.33 µM (inactive). Moreover, the GI50 with KM12 is 8.15 µM (inactive); in the assay on OVCAR-5, 15.1 µM (inactive); in the assay with HOP-62, 15.5 µM (inactive); in the assay with HOP-18 it was 3.39 µM (inactive); in the assay on LXFL 529 it was 6.35 µM (inactive); in the assay with A498, 16.2 µM (inactive). Besides, the GI50 in the assay on HCC 2998 was 6.49 µM (inactive).

As to `CCOC(=O)N1N=NC2C3OC(C[C@@]3(C#N)OC(C)=O)[C@H]21` (some centres not stated), the GI50 in the assay on SF-268 was 51.9 µM (inactive); in the assay on UACC-62, > 100 µM (inactive); in the assay on A549 it was > 100 µM (inactive); in the assay with KM-20L2, > 100 µM (inactive); in the assay with OVCAR-3, > 100 µM (inactive); in the assay with HL-60 it was > 100 µM (inactive). The GI50 in the assay with KM12, with OVCAR-5, in the assay on SNB-75, with SK-MEL-28, in the assay on HOP-62 and in the assay on HOP-18 was > 100 µM (inactive) throughout. Moreover, the GI50 in the assay with LXFL 529 and in the assay with HCC 2998 was > 100 µM (inactive) throughout.

With `COCCCNC(=O)CC(=O)NCCCOC`, the GI50 with SF-268, with UACC-62, in the assay on A549, in the assay with KM-20L2, in the assay with OVCAR-3 and with HL-60 was > 100 µM (inactive) throughout. Besides, the GI50 with KM12, in the assay on OVCAR-5, in the assay on SK-MEL-28, with HOP-62, in the assay with HOP-18 and in the assay on LXFL 529 was > 100 µM (inactive) throughout. Further, the GI50 in the assay on A498 and with HCC 2998 was > 100 µM (inactive) in each case.

As for `N#CC1(C2CC(=O)N(c3ccccc3)C2=O)CCCCC1=O` (configuration not stated), the GI50 in the assay on SF-268, in the assay with UACC-62, with A549, in the assay with OVCAR-3, with HL-60 and with KM12 was > 100 µM (inactive) throughout. The GI50 in the assay on OVCAR-5 is > 100 µM (inactive); with SNB-75 it was > 100 µM (inactive); in the assay on SK-MEL-28, > 100 µM (inactive); in the assay with HOP-18, > 100 µM (inactive); in the assay on LXFL 529, > 100 µM (inactive); in the assay with HCC 2998 it was 0.104 µM (active).

With `Cc1c(-c2ccccc2)c(=O)oc2ccc(Cl)cc12`, the GI50 is 90.2 µM (inactive) with SF-268; 59.8 µM (inactive) with UACC-62; > 100 µM (inactive) in the assay with A549; > 100 µM (inactive) in the assay with OVCAR-3; > 100 µM (inactive) in the assay with HL-60; > 100 µM (inactive) in the assay on KM12. Also, the GI50 with OVCAR-5 is > 100 µM (inactive); in the assay with SNB-75, 16.1 µM (inactive); with SK-MEL-28 it was > 100 µM (inactive); in the assay on HOP-62, 27.9 µM (inactive); in the assay with HOP-18, > 100 µM (inactive); in the assay on LXFL 529, > 100 µM (inactive). For the same molecule, the GI50 in the assay with A498 and with HCC 2998 was > 100 µM (inactive) each time.
